Entries after “also recorded” stand apart in the source; their conditions may differ. Where two headings read alike, the source gives them in different places. One block for each compound: values may come before it.
Tests used:
[1] = test system: Bleomycin-induced lung fibrosis; assay: Bleomycin-induced lung fibrosis model; details: for In life mortality: oral, days 7 to 21, bleomycin 1.5 U/kg
Method: Treatment group animals (n=10/group) received 1.5 U/kg of clinical bleomycin via oropharyngeal route on day 0 under inhalant anaesthesia. Animals were monitored for tolerance of the bleomycin administration procedure and subsequently bodyweights of all mice were recorded at least 3 times per week during the study. […] All treatments were administered orally.
At day 21, lungs were harvested from each animal and weighed, followed by fixation in 10% neutral buffered formalin (NBF) for histopathological analysis. The lung samples were processed and embedded with all lobes from each mouse in one paraffin block. Coronal sections through the four major lobes were stained with Masson's Trichrome. For each animal, consecutive lung fields were examined at 200×magnification in a raster pattern using a 20×objective lens and a 10×ocular lens. […] The Fibrotic Index was calculated as the sum of the modified Ashcroft field scores divided by the number of fields examined.

USP30 = molecular target: T1, USP30 (Homo sapiens, UniProt Q70CQ3); assay: USP30 biochemical IC50 assay
T1 sequence (Q70CQ3 1-517): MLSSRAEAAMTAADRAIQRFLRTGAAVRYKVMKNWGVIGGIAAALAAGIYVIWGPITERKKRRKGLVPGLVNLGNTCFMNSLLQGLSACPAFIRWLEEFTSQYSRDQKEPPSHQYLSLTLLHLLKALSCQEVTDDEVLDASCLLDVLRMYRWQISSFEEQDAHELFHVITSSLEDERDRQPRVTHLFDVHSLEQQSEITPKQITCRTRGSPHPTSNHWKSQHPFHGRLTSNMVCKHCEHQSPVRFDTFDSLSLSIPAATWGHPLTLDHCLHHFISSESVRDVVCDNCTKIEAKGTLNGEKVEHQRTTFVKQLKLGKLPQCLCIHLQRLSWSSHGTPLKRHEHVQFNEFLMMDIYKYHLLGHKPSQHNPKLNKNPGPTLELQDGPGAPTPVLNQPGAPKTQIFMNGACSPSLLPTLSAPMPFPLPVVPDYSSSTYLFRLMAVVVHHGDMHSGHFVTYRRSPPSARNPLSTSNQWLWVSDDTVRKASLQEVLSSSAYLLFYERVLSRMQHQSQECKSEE
Method: Dilution plates were prepared at 21 times the final concentration (2100 μM for a final concentration of 100 μM) in 50% DMSO in a 96-well polypropylene V-bottom plate (Greiner #651201). A typical 8-point dilution series would be 100, 30, 10, 3, 1, 0.3, 0.1, 0.03 μM final. Reactions were performed in duplicate in black 384 well plates (small volume, Greiner 784076) in a final reaction volume of 21 μl. Either 1 μl of 50% DMSO or diluted compound was added to the plate. USP30 was diluted in reaction buffer (40 mM Tris, pH 7.5, 0.005% Tween 20, 0.5 mg/ml BSA, 5 mM beta-mercaptoethanol) to the equivalent of 0.05 μl/well and 10 μl of diluted USP30 was added to the compound. Enzyme and compound were incubated for 30 min at room temp. Reactions were initiated by the addition of 50 nM of TAMRA labelled peptide linked to ubiquitin via an iso-peptide bond as fluorescence polarisation substrate. Reactions were read immediately after addition of substrate and following a 2-hour incubation at room temperature. Readings were performed on a Pherastar Plus (BMG Labtech). λ Excitation 540 nm; λ Emission 590 nm.

[2] = test system: Unilateral ureteral obstruction (UUO) kidney fibrosis; assay: Unilateral ureteral obstructive kidney disease model (UUO); type: in vivo; details: for In life mortality / collagen (picrosirius red staining): UUO
Source text: In this study, adult C57B16 female mice at 7 to 8 weeks of age with average weight of around 18 to 20 g were used. To complete the ureteral obstruction, the abdominal cavity was exposed via a midline incision and the left ureter was ligated at two points with 4-0 silk and dissected. Successful unilateral ureteral obstruction was later confirmed by observation of dilation of the renal pelvis due to hydronephrosis.
At harvest, mice were anesthetised and both kidneys were harvested; the contralateral kidney serves as control for the UUO kidney. The kidneys were dissected along median line into two parts, of which one side was fixed in formaldehyde, for paraffin embedding and the other was snap frozen for protein or RNA isolation.
Formalin fixed tissue were embedded in paraffin blocks and cut into 5 μm sections. All damaged kidneys, 5 contralateral kidneys from each group and 3 sham kidneys were analysed (in total n=80 kidney samples). Picrosirius Red and α-SMA stain was performed to evaluate fibrotic changes and myofibroblast activation. Analysis was performed by a pathology trained technical staff member, without knowledge of the animal group assignment. High magnification images were taken of each slide an analysed for the surface area covered by the stain.

diet-induced NAFLD/NASH = assay: Diet-induced model of NAFLD/NASH; type: in vivo, mice; details: 8 weeks; for liver steatosis / fibrotic stage scores (picosirius red stained liver sections, post- compared to pre-study biopsy): diet-induced NAFLD/NASH, Elafibranor 30 mg/kg QD
Method: Mice were fed Amylin-diet (D09100301, Research Diets, US; 40% fat (18% trans-fat), 40% carbohydrate (20% fructose) and 2% cholesterol) for 37 weeks. Liver biopies were harvested and mice were randomization into treatment groups based on liver Colla1 quantification. Three weeks following biopsy surgery, study animals were dosed orally (P.O.) with either; Vehicle (0.5% HPMC/0.5% PVP/0.1% SDS nanosuspension), MT#1 @ 15 mg/kg QD or MT#1 @ […] QD […] or with Elafibranor @ 30 mg/kg QD (positive control) for eight (8) weeks. A control group of age- and sex-matched mice fed lean chow diet ad libitum were also administered vehicle (P.O) over the same 8 (eight) week period. Following the full dosing schedule, mice were sacrificed, whole livers resected and weighed, fixed in paraformaldehyde before being paraffin embedded. H&E stained slides were then prepared and the average % fractional area of lipid vacuoles (steatosis) determined for each section (@ 20×objective) using Visiomorph software (Visophram, Denmark). The average % fractional area was multiplied by the total liver weight to determine the total liver lipid content per animal. Values expressed as mean of n=9-12+SEM. Dunnett's test one-factor linear model. **: P<0.01, ***: P<0.001 compared to DIO-NASH Vehicle.
Summary of fibrosis stage scores of pre- and post-study liver biopsies harvested from the diet-induced NAFLD/NASH study. Fibrosis stage scores are determined by assessment of picosirius red stained liver sections for relative appearance and location of collagen staining, where; 0=No staining, 1=Perisinusoidal or periportal, 2=Perisinusoidal and periportal and […]=Bridging collagen staining observed. For each group of animals with higher (worsening), same or lower (improvement) in score at post-compared to pre-study is indicated by the height of the bar. One-sided Fisher's exact test with Bonferroni correction. No differences at significance level 0.05.

Compound: Cc1ccc(=O)n(-c2ccccc2)c1 [pirfenidone, reference compound]
In life mortality ([1]; 100 mg/kg pirfenidone BID): 0%

Compound: N#Cc1cccc(-c2nnc(C(=O)NC[C@H]3CCN(C#N)C3)o2)c1 [Example 68, (R)-5-(3-cyanophenyl)-N-((1-cyanopyrrolidin-3-yl)methyl)-1,3,4-oxadiazole-2-carboxamide]
IC50 (USP30; Examples of WO 2017/103614): < 10 nM | In life mortality ([2]; 5 mg/kg MT#1 nanosuspension BID PO, days 0 to 10): 10% | collagen (picrosirius red staining) ([2]; 15 mg/kg BID MT#1): Statistically significant decreases | In life mortality ([2]; 15 mg/kg MT#1 nanosuspension BID PO, days 0 to 10): 0% | collagen (picrosirius red staining) ([2]; 50 mg/kg BID MT#1): Statistically significant decreases | In life mortality ([2]; 50 mg/kg MT#1 nanosuspension BID PO, days 0 to 10): 10% | collagen deposition as measured by picrosirius red staining ([2]; UUO, 5, 15, 50 mg/kg BID PO, days 0 to 10): dose dependent decrease | total liver lipid content, reduction (diet-induced NAFLD/NASH; NASH animals, MT#1 15 mg/kg BID (P.O.), compared to DIO-NASH Vehicle): statistically significant | total liver lipid content (diet-induced NAFLD/NASH; NASH animals, P.O., dose dependence): dose-dependent reduction | liver steatosis (diet-induced NAFLD/NASH; P.O.): statistically significant reduction | fibrotic stage scores (picosirius red stained liver sections, post- compared to pre-study biopsy) (diet-induced NAFLD/NASH; P.O., listed as MT#1): Neither MT#1 or Elafibranor (positive control) significantly improved; also recorded: did not significantly improve | In life mortality ([1]; 5 mg/kg MT#1 nanosuspension BID): 10% | In life mortality ([1]; 15 mg/kg MT#1 nanosuspension BID): 10% | fibrosis as assessed by the modified Ashcroft score, effect compared to vehicle ([1]; 50 mg/kg BID oral, one-way ANOVA + Tukey): statistically significant effect compared to vehicle | In life mortality ([1]; 50 mg/kg MT#1 nanosuspension BID): 0% | fibrosis as assessed by the modified Ashcroft score (collagen deposition, septae thickening) ([1]; dose ranging 5, 15, 50 mg/kg BID oral, days 7 to 21, harvest day 21): dose dependent reduction

IC50 (USP30; Examples of WO 2017/103614): 100 to 1000 nM
Compound: N#CN1CCC(CNC(=O)c2cc(-c3ccccc3)[nH]n2)C1 (stereo not drawn) [Example 22, N-((1-cyanopyrrolidin-3-yl)methyl)-5-phenyl-1H-pyrazole-3-carboxamide]

IC50 (USP30; Examples of WO 2017/103614): 100 to 1000 nM
Compound: N#CN1CCC(CNC(=O)c2csc(-c3ccccc3)n2)C1 (stereo not drawn) [Example 26, N-((1-cyanopyrrolidin-3-yl)methyl)-2-phenylthiazole-4-carboxamide]

Compound: CSc1ccc(C(=O)/C=C/c2cc(C)c(OC(C)(C)C(=O)O)c(C)c2)cc1 [Elafibranor, reference compound]
fibrotic stage scores (picosirius red stained liver sections, post- compared to pre-study biopsy) (diet-induced NAFLD/NASH; P.O.): Neither MT#1 or Elafibranor (positive control) significantly improved; also recorded: failed to statistically improve | liver steatosis (diet-induced NAFLD/NASH; P.O.): significantly reducing

IC50 (USP30): < 10 nM
Compound: N#CN1CC[C@H](CNC(=O)c2cnn(-c3cccc(Cl)c3)n2)C1 [Example 7, (R)-2-(3-chlorophenyl)-N-((1-cyanopyrrolidin-3-yl)methyl)-2H-1,2,3-triazole-4-carboxamide]

IC50 (USP30): 100 to 1000 nM
Compound: N#CN1CC[C@H](CNC(=O)c2cn(-c3cccc(Cl)c3)nn2)C1 [Example 6, (R)-1-(3-chlorophenyl)-N-((1-cyanopyrrolidin-3-yl)methyl)-1H-1,2,3-triazole-4-carboxamide]

Compound: Cc1cccc(-c2[nH]c(Cc3cccc(C(N)=O)c3)nc2-c2ccc3nccnc3c2)n1 [IN-1130, reference compound]
In life mortality ([2]; 20 mg/kg IN-1130 QD IP, days 0 to 10): 0%

— patent US20210002262A1, “CYANOPYRROLIDINES AS USP30 INHIBITORS AND FIBROSIS TREATMENT” (MISSION THERAPEUTICS LIMITED, priority 2018, published 2021)
